Test system: ATF4
Experiment: HEK-ATF4 High Content Imaging assay (prevention of Tunicamycin induced ISR, ATF4 nucleus/cytoplasm signal ratio)
Type: cell-based
Conditions: Homo sapiens, wild-type HEK293 cells, 6 h incubation, ATF4 immunofluorescence
Procedure: HEK-ATF4 High Content Imaging assay
Example compounds were tested in the HEK-ATF4 High Content Imaging assay to assess their pharmacological potency to prevent Tunicamycin induced ISR. Wild-type HEK293 cells were plated in 384-well imaging assay plates at a density of 12,000 cells per well in growth medium (containing DMEM/F12, 10% FBS, 2 mM L-Glutamine, 100 U/mL Penicillin—100 μg/mL Streptomycin) and incubated at 37° C., 5% CO2. 24 h later, the medium was changed to 50 μL assay medium per well (DMEM/F12, 0.3% FBS, 2 mM L-Glutamine, 100 U/mL Penicillin—100 μg/mL Streptomycin). Example compounds were serially diluted in DMSO, spotted into intermediate plates and prediluted with assay medium containing 3.3 μM Tunicamycin to give an 11-fold excess of final assay concentration. In addition to the example compound testing area, the plates also contained multiples of control wells for assay normalization purposes, wells containing Tunicamycin but no example compounds (High control), as well as wells containing neither example compound nor Tunicamycin (Low control). The assay was started by transferring 5 μL from the intermediate plate into the assay plates, followed by incubation for 6 h at 37° C., 5% CO2. Subsequently, cells were fixed (4% PFA in PBS, 20 min at r.t.) and submitted to indirect ATF4 immunofluorescence staining (primary antibody rabbit anti ATF4, clone D4B8, Cell Signaling Technologies; secondary antibody Alexa Fluor 488 goat anti-rabbit IgG (H+L), Thermofisher Scientific). Nuclei were stained using Hoechst dye (Thermofisher Scientific), and plates were imaged on an Opera Phenix High Content imaging platform equipped with 405 nm and 488 nm excitation. Finally, images were analyzed using script based algorithms. The main readout HEK-ATF4 monitored the ATF4 signal ratio between nucleus and cytoplasm. Tunicamycin induced an increase in the overall ATF4 ratio signal, which was prevented by ISR modulating example compounds. In addition, HEK-CellCount readout was derived from counting the number of stained nuclei corresponding to healthy cells. This readout served as an internal toxicity control.

With O=C(COc1ccc(Cl)c(F)c1)N[C@H]1CC[C@H](c2nc3c(Cl)cccc3o2)NC1 [Example 18, N-[(3S,6R)-6-(4-chloro-1,3-benzoxazol-2-yl)piperidin-3-yl]-2-(4-chloro-3-fluorophenoxy)acetamide] as the molecule, how does the IC50 read?
The IC50 was 2000 to 15000 nM.

Which IC50 does the source give for O=C(COc1ccc(Cl)c(F)c1)N[C@H]1CC[C@H](c2nc3cc(Cl)ccc3o2)NC1 [Example 4, N-[(3S,6R)-6-(5-chloro-1,3-benzoxazol-2-yl)piperidin-3-yl]-2-(4-chloro-3-fluorophenoxy)acetamide] here?
The IC50 was 2000 to 15000 nM.

Which IC50 does the source give for O=C(COc1ccc(Cl)c(F)c1)N[C@H]1CC[C@H](c2nc3ccc(Cl)cc3o2)NC1 [Example 2, N-[(3S,6R)-6-(6-chloro-1,3-benzoxazol-2-yl)piperidin-3-yl]-2-(4-chloro-3-fluorophenoxy)acetamide] here?
Its IC50 is 500 to 2000 nM.

Which IC50 does the source give for O=C(COc1ccc(Cl)c(F)c1)N[C@H]1CC[C@H](c2nc3ccc(OC(F)(F)F)cc3o2)NC1 [Example 12, 2-(4-chloro-3-fluorophenoxy)-N-[(3S,6R)-6-[6-(trifluoromethoxy)-1,3-benzoxazol-2-yl]piperidin-3-yl]acetamide] here?
Its IC50 is 1 to 500 nM.

For O=C(COc1ccc(Cl)c(F)c1)N[C@H]1CC[C@H](c2cn3ccc(C(F)(F)F)cc3n2)NC1 [Example 8, 2-(4-chloro-3-fluoro-phenoxy)-N-[(3S,6R)-6-[7-(trifluoromethyl)imidazo[1,2-a]pyridin-2-yl]-3-piperidyl]acetamide], which IC50 is on record?
Its IC50 is 2000 to 15000 nM.

For O=C(COc1ccc(Cl)c(F)c1)N[C@H]1CC[C@H](c2nc3ccc(C(F)(F)F)cc3o2)NC1 [Example 16, 2-(4-chloro-3-fluorophenoxy)-N-[(3S,6R)-6-[6-(trifluoromethyl)-1,3-benzoxazol-2-yl]piperidin-3-yl]acetamide], which IC50 is on record?
The IC50 was 1 to 500 nM.

How did the IC50 turn out when O=C(COc1ccc(Cl)c(F)c1)N[C@H]1CC[C@H](c2cn3cc(C(F)(F)F)ccc3n2)NC1 [Example 6, 2-(4-chloro-3-fluoro-phenoxy)-N-[(3S,6R)-6-[6-(trifluoromethyl)imidazo[1,2-a]pyridin-2-yl]-3-piperidyl]acetamide] was run?
Its IC50 is 2000 to 15000 nM.

For O=C(COc1ccc(Cl)c(F)c1)N[C@H]1CC[C@H](c2nc3ccc(OC(F)F)cc3o2)NC1 [Example 14, 2-(4-chloro-3-fluorophenoxy)-N-[(3S,6R)-6-[6-(difluoromethoxy)-1,3-benzoxazol-2-yl]piperidin-3-yl]acetamide], which IC50 is on record?
Its IC50 is 500 to 2000 nM.

With O=C(COc1ccc(Cl)c(F)c1)N[C@H]1CC[C@H](c2nc3cccc(Cl)c3o2)NC1 [Example 10, N-[(3S,6R)-6-(7-chloro-1,3-benzoxazol-2-yl)piperidin-3-yl]-2-(4-chloro-3-fluorophenoxy)acetamide] as the molecule, how does the IC50 read?
Its IC50 is 500 to 2000 nM.

Source: patent publication US12600720B2, “Modulators of the integrated stress response pathway” (Evotec International GmbH, priority 2020, dated 2026)
